# Results reported in ChEMBL document CHEMBL2434948, “Discovery, synthesis, and characterization of an orally bioavailable, brain penetrant inhibitor of mixed lineage kinase 3” (J Med Chem, 2013).
# Calls of active or inactive are those of the source. No cut-off for these calls is given here.
# Columns and labels:
# [1] = target: Leucine-rich repeat serine/threonine-protein kinase 2 (Homo sapiens, UniProt Q5S007); experiment: Inhibition of human wild type LRRK2 at 1 uM by qPCR analysis relative to control
# [2] = target: Serine/threonine-protein kinase MARK1 (Homo sapiens) (UniProt Q9P0L2); experiment: Inhibition of human wild type MARK1 at 1 uM by qPCR analysis relative to control
# [3] = target: TRAF2 and NCK-interacting protein kinase (Homo sapiens) (UniProt Q9UKE5); experiment: Binding affinity to human wild type TNIK at 1 uM by qPCR analysis
# [4] = target: T1, Mitogen-activated protein kinase 1 (Homo sapiens, UniProt P28482)
# T1 sequence (P28482 whole entry): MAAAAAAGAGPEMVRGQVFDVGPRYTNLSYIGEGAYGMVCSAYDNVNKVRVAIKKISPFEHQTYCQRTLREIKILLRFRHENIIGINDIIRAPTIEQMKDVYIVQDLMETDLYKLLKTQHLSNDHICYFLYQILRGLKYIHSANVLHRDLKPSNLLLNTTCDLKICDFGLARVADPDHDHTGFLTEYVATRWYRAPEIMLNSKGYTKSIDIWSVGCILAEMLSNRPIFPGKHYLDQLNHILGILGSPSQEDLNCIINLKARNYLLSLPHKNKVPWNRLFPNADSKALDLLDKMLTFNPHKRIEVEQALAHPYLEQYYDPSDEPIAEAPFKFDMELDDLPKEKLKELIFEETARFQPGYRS
# Description: Inhibition of wild type human ERK2 by high throughput ATP-[33P] radiolabeled assay
# [5] = target: T2, Tyrosine-protein kinase ABL1 (Homo sapiens, UniProt P00519); experiment: Inhibition of human ABL1 mutant at 1 uM by qPCR analysis
# T2 sequence (P00519 whole entry): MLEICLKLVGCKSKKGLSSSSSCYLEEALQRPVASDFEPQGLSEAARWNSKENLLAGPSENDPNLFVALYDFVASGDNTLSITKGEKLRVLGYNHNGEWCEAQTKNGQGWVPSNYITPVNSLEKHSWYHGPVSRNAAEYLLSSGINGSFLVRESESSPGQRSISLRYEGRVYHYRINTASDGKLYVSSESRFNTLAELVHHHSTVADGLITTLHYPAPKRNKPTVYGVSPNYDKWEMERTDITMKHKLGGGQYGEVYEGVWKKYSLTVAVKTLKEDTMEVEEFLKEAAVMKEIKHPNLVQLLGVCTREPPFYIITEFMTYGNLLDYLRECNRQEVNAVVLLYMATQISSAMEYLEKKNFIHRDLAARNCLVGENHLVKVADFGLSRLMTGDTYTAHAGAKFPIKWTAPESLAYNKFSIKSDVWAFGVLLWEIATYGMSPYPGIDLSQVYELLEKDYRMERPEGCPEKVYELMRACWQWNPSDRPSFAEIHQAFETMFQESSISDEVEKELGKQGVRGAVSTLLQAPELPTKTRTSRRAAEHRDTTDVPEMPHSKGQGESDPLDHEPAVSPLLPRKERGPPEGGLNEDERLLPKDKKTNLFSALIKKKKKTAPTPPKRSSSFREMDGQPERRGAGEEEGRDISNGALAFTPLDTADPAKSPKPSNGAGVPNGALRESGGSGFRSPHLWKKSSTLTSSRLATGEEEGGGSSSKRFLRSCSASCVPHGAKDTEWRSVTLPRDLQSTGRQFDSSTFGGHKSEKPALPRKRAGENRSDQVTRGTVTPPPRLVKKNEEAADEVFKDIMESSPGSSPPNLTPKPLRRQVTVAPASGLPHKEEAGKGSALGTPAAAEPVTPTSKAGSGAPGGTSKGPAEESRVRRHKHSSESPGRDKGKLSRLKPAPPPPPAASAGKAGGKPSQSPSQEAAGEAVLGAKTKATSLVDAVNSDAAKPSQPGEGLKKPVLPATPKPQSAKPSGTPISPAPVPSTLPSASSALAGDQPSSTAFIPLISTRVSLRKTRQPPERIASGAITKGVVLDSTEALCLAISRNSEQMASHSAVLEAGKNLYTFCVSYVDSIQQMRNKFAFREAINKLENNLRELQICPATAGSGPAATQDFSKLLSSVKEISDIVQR
# [6] = target: Receptor-type tyrosine-protein kinase FLT3 (Homo sapiens) (UniProt P36888); experiment: Inhibition of human wild type FLT3 at 1 uM by qPCR analysis relative to control
# [7] = target: RAC-alpha serine/threonine-protein kinase (Homo sapiens) (UniProt P31749); experiment: Inhibition of human wild type AKT1 at 1 uM by qPCR analysis
# [8] = target: Maternal embryonic leucine zipper kinase (Homo sapiens) (UniProt Q14680); experiment: Inhibition of human wild type MELK at 1 uM by qPCR analysis relative to control
# [9] = target: Mitogen-activated protein kinase 11 (Homo sapiens) (UniProt Q15759); experiment: Inhibition of human wild type p38b at 1 uM by qPCR analysis
# [10] = target: Dual specificity protein kinase CLK2 (Homo sapiens) (UniProt P49760); experiment: Inhibition of human wild type CLK2 at 1 uM by qPCR analysis relative to control
# Dual specificity protein kinase CLK2 (Homo sapiens), sequence (P49760 whole entry, looked up): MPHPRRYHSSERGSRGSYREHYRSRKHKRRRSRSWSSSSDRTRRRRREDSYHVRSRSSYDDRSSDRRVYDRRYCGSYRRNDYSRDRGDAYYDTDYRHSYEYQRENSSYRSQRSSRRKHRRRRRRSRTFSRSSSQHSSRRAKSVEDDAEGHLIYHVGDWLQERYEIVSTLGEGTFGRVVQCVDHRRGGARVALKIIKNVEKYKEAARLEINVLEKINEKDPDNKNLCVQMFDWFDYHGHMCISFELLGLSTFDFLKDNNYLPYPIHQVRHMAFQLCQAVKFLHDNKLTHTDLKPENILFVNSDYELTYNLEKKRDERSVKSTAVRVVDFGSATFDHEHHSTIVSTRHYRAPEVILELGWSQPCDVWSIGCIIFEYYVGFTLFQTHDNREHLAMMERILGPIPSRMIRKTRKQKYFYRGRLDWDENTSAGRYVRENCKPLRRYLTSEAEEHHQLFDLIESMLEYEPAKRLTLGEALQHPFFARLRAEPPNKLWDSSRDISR
# Cytochrome P450 2C9 = Cytochrome P450 2C9 (Homo sapiens, UniProt P11712)
# Cytochrome P450 2C9, sequence (P11712 whole entry): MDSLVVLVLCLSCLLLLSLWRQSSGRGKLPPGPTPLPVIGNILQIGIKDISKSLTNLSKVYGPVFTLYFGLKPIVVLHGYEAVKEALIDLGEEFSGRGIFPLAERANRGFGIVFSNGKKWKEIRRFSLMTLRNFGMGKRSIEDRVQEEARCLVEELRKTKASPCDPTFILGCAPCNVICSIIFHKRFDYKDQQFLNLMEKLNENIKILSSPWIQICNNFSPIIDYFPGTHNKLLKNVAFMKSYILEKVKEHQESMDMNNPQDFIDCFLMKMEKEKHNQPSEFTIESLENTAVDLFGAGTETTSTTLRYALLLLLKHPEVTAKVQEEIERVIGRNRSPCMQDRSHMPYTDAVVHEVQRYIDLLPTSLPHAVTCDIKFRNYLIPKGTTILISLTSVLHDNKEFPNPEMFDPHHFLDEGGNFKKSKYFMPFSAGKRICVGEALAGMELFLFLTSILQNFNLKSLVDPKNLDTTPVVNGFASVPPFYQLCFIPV
# Description: Inhibition of CYP2C9 in human liver microsomes assessed as inhibition of midazolam metabolism by HPLC/MS analysis
# Brain = experiment: Drug uptake in C57BL/6 mouse brain at 10 mg/kg, iv measured over 6 hrs; format: ADME, organism-based; set-up: dose 10 mg/kg, route intravenous; conditions: in vivo
# [11] = target: Mitogen-activated protein kinase 14 (Homo sapiens, UniProt Q16539)
# Description: Inhibition of wild type human P38a by high throughput ATP-[33P] radiolabeled assay
# [12] = target: T2, Tyrosine-protein kinase ABL1
# Description: Inhibition of wild type human ABL1 by high throughput ATP-[33P] radiolabeled assay
# [13] = target: Proto-oncogene tyrosine-protein kinase Src (Homo sapiens, UniProt P12931)
# Description: Inhibition of wild type human SRC by high throughput ATP-[33P] radiolabeled assay
# [14] = target: Mast/stem cell growth factor receptor Kit (Homo sapiens) (UniProt P10721); experiment: Inhibition of human wild type KIT at 1 uM by qPCR analysis relative to control
# [15] = target: Mitogen-activated protein kinase kinase kinase 9 (Homo sapiens, UniProt P80192)
# Description: Inhibition of MLK1 (unknown origin)
# [16] = target: Cyclin-dependent kinase 4 (Homo sapiens) (UniProt P11802); experiment: Inhibition of human wild type CDK4 at 1 uM by qPCR analysis relative to control
# Cyclin-dependent kinase 4 (Homo sapiens), sequence (P11802 whole entry): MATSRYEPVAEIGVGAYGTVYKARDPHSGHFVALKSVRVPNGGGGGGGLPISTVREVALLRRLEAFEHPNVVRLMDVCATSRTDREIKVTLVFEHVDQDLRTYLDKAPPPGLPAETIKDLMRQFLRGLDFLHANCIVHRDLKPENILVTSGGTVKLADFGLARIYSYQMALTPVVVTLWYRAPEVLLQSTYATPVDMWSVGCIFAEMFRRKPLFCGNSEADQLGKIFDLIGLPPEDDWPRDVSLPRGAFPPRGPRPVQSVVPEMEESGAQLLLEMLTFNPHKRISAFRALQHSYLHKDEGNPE
# [17] = target: Dual specificity protein kinase CLK4 (Homo sapiens) (UniProt Q9HAZ1); experiment: Inhibition of human wild type CLK4 at 1 uM by qPCR analysis relative to control
# [18] = target: T1, Mitogen-activated protein kinase 1; experiment: Inhibition of human wild type ERK2 at 1 uM by qPCR analysis
# [19] = target: Mitogen-activated protein kinase 8 (Homo sapiens, UniProt P45983); experiment: Inhibition of human wild type JNK1 at 1 uM by qPCR analysis relative to control
# [20] = target: Serine/threonine-protein kinase B-raf (Homo sapiens) (UniProt P15056); experiment: Inhibition of human wild type BRAF at 1 uM by qPCR analysis
# [21] = target: Inhibitor of nuclear factor kappa-B kinase subunit beta (Homo sapiens) (UniProt O14920); experiment: Inhibition of human wild type IKKbeta at 1 uM by qPCR analysis relative to control
# [22] = target: Mitogen-activated protein kinase 3 (Homo sapiens) (UniProt P27361); experiment: Inhibition of human wild type ERK1 at 1 uM by qPCR analysis
# [23] = target: Serine/threonine-protein kinase Sgk1 (Homo sapiens) (UniProt O00141); experiment: Inhibition of human wild type SGK1 at 1 uM by qPCR analysis relative to control
# [24] = target: SRSF protein kinase 2 (Homo sapiens) (UniProt P78362); experiment: Inhibition of human wild type SRPK2 at 1 uM by qPCR analysis relative to control
# Cytochrome P450 2D6 = Cytochrome P450 2D6 (Homo sapiens, UniProt P10635)
# Description: Inhibition of CYP2D6 in human liver microsomes assessed as inhibition of diclofenac metabolism by HPLC/MS analysis
# [25] = target: Serine/threonine-protein kinase MARK2 (Homo sapiens) (UniProt Q7KZI7); experiment: Inhibition of human wild type MARK2 at 1 uM by qPCR analysis relative to control
# [26] = target: Ribosomal protein S6 kinase alpha-1 (Homo sapiens) (UniProt Q15418); experiment: Inhibition of human wild type RSK1 at 1 uM by qPCR analysis
# [27] = target: Glycogen synthase kinase-3 beta (Homo sapiens, UniProt P49841)
# Description: Inhibition of wild type human GSK3B by high throughput ATP-[33P] radiolabeled assay
# [28] = target: Mitogen-activated protein kinase 13 (Homo sapiens) (UniProt O15264); experiment: Inhibition of human wild type p38d at 1 uM by qPCR analysis
# [29] = target: Cyclin-dependent kinase-like 2 (Homo sapiens) (UniProt Q92772); experiment: Inhibition of human wild type CDKL2 at 1 uM by qPCR analysis relative to control
# [30] = target: T2, Tyrosine-protein kinase ABL1; experiment: Inhibition of human wild type ABL1 at 1 uM by qPCR analysis relative to control
# [31] = target: RAC-gamma serine/threonine-protein kinase (Homo sapiens) (UniProt Q9Y243); experiment: Inhibition of human wild type AKT3 at 1 uM by qPCR analysis
# [32] = target: Mitogen-activated protein kinase kinase kinase 11 (Homo sapiens, UniProt Q16584); conditions: 300 nM
# Mitogen-activated protein kinase kinase kinase 11, sequence (Q16584 whole entry, looked up): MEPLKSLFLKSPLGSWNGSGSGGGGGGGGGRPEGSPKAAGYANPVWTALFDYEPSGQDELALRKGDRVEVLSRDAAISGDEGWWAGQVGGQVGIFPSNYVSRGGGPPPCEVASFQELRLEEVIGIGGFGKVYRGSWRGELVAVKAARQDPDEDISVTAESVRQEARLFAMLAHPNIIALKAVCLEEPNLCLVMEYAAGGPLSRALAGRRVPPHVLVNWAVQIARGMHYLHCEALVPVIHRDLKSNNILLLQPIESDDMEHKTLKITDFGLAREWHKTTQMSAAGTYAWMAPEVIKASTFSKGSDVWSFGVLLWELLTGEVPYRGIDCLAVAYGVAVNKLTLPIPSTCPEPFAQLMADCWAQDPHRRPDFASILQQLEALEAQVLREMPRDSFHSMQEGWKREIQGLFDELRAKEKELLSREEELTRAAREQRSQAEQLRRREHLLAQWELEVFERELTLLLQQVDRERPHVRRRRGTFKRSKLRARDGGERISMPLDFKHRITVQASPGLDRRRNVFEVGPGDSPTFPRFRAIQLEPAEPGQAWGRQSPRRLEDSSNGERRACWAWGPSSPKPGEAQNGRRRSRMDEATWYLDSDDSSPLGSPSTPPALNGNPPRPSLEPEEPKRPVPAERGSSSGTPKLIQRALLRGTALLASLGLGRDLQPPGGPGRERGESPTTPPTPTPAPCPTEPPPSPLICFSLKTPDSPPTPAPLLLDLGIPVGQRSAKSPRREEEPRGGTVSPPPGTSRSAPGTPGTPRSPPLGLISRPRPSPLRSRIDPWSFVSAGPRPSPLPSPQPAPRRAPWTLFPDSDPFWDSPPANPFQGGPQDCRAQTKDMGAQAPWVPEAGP
# [33] = target: Mitogen-activated protein kinase 12 (Homo sapiens) (UniProt P53778); experiment: Inhibition of human wild type p38g at 1 uM by qPCR analysis
# [34] = target: Tyrosine-protein kinase receptor UFO (Homo sapiens) (UniProt P30530); experiment: Inhibition of human wild type AXL at 1 uM by qPCR analysis relative to control
# Tyrosine-protein kinase receptor UFO (Homo sapiens), sequence (P30530 whole entry): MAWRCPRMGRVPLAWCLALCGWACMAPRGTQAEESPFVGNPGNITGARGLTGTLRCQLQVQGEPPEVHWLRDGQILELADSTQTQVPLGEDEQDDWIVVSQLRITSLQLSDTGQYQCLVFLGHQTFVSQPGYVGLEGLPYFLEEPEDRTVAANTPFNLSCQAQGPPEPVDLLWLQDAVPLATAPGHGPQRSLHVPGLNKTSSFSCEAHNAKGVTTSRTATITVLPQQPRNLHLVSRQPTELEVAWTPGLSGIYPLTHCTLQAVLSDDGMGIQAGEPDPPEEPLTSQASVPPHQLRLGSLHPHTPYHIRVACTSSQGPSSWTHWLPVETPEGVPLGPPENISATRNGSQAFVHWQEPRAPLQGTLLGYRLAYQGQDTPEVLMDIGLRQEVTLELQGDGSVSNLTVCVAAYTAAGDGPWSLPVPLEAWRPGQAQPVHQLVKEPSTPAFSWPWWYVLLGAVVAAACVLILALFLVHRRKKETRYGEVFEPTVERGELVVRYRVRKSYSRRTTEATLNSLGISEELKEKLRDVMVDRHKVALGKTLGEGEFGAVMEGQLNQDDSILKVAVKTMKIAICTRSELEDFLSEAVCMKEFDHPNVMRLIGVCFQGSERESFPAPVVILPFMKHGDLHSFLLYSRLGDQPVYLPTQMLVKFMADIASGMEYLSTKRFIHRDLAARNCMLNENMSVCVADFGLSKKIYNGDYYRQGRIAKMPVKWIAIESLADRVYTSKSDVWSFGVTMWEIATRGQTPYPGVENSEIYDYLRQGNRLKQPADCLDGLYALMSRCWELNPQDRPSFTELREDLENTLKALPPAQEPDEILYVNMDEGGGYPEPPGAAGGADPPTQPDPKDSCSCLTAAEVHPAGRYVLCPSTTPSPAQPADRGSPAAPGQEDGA
# [35] = target: Dual specificity protein kinase CLK1 (Homo sapiens) (UniProt P49759); experiment: Inhibition of human wild type CLK1 at 1 uM by qPCR analysis relative to control
# Dual specificity protein kinase CLK1 (Homo sapiens), sequence (P49759 whole entry, looked up): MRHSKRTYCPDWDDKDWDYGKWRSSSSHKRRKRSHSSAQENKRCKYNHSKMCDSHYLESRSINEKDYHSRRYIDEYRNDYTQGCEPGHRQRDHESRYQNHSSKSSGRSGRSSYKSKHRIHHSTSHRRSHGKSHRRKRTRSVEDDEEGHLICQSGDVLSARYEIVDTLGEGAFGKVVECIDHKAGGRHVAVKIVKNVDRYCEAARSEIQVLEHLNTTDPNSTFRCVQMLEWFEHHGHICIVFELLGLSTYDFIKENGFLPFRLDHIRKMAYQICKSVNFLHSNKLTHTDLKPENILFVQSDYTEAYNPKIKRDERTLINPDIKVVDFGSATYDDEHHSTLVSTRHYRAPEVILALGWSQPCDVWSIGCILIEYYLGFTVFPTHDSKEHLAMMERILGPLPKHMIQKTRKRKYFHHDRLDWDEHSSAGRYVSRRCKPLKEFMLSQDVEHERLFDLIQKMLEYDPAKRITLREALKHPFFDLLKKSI
# [36] = target: Ribosomal protein S6 kinase alpha-6 (Homo sapiens) (UniProt Q9UK32); experiment: Inhibition of human wild type RSK4 at 1 uM by qPCR analysis
# [37] = target: Rho-associated protein kinase 1 (Homo sapiens, UniProt Q13464); conditions: 1 uM
# Description: Inhibition of human wild type ROCK1 at 1 uM by qPCR analysis relative to control
# [38] = target: Vascular endothelial growth factor receptor 1 (Homo sapiens, UniProt P17948)
# Description: Inhibition of wild type human FLT1 by high throughput ATP-[33P] radiolabeled assay
structure (smiles),measurement,setting,value
CN1CCN(Cc2ccc(-c3cnc4[nH]cc(-c5ccc6[nH]ccc6c5)c4c3)cc2)CC1,inhibition,[1],92%
same,inhibition,[2],92%
same,inhibition,[3],Active
same,IC50,[4],6.29 µM
same,inhibition,[5],Active
same,inhibition,[6],> 90%
same,inhibition,[7],inactive
same,inhibition,[8],> 90%
same,inhibition,[9],inactive
same,inhibition,[10],> 90%
same,IC50,Cytochrome P450 2C9,> 30 µM
same,Drug uptake,Brain,Active
same,IC50,[11],12 µM
same,IC50,[12],0.0068 µM
same,IC50,[13],4.33 µM
same,inhibition,[14],> 90%
same,IC50,[15],0.019 µM
same,inhibition,[16],> 90%
same,inhibition,[17],> 90%
same,inhibition,[18],inactive
same,inhibition,[19],99%
same,inhibition,[20],inactive
same,inhibition,[21],> 90%
same,inhibition,[22],inactive
same,inhibition,[23],70%
same,inhibition,[24],> 90%
same,IC50,Cytochrome P450 2D6,> 30 µM
same,inhibition,[25],49%
same,inhibition,[26],inactive
same,IC50,[27],> 10 µM
same,inhibition,[28],inactive
same,inhibition,[29],> 90%
same,inhibition,[30],> 90%
same,inhibition,[31],inactive
same,inhibition,[32],> 50%
same,inhibition,[33],inactive
same,inhibition,[34],> 90%
same,inhibition,[35],> 90%
same,inhibition,[36],inactive
same,inhibition,[37],> 90%
same,IC50,[38],0.039 µM
